The values that follow come from article PMC11111408, “Concurrent inhibition of oncogenic and wild-type RAS-GTP for cancer therapy” (Nature, 2024).

Usually EC50 stands for the concentration at which the effect is half-maximal. The bioavailability is the share of a dose that reaches the circulation, judged against a reference dose that is usually intravenous. The term Kd denotes the equilibrium constant for the complex coming apart. A low value points to higher affinity.

Series [1] relates to Capan-1 cells. Put plainly: Cellular ERK phosphorylation (pERK). It is filed as cell-based. The settings on record: Homo sapiens; Capan-1 (KRAS^G12V PDAC); (95% CI).
The nature of series [2]: Oral bioavailability in mice (LC-MS/MS of blood). It is filed as in vivo. Particulars: mouse, whole blood, read-out: Oral Bioavailability m%F.
The test system of series [3] is A375 cells. Briefly: Cell proliferation (CTG). It counts as cell-based, human. Particulars: Homo sapiens, A-375; A375, CTG; (95% CI). Here is the method: (§1) Alternatively, cells were seeded in round-bottom ultra-low attachment 96-well plates, centrifuged at 1,000 rpm for 10 min to pellet the cells, and incubated overnight or up to 72 h to allow for 3D spheroid formation. […] Cell viability was determined by CellTiter-Glo 2.0 reagent (2D CTG) (Promega, G9243) or 3D CellTiter-Glo reagent (3D CTG) (Promega, G9683) according to the manufacturer’s protocols. Luminescence was detected using a SpectraMax M5 Plate Reader (Molecular Devices) of Perkin Elmer Enspire. Luminescence signal was normalized to vehicle-treated wells (normalized signal (%) = (luminescence (treated)/mean luminescence (vehicle)) × 100%). […] Data were plotted as log [inhibitor (M)], and a four-parameter sigmoidal concentration response model was fitted to the data to calculate EC50. […] Pa16C MEK1 mutant cells were evaluated by live-cell counting using Calcein AM and a SpectraMax i3X multi-mode detection platform (Molecular Devices). Growth percentages were calculated by normalizing the treated cell counts to their respective untreated cell counts.

Series [4] addresses T1, CYPA (Homo sapiens, UniProt P62937).
T1 construct: His6-TEV-AviTag-CYPA (full-length); His6-TEV (N); made in house; host or cells: BL21(DE3) Escherichia coli
Put plainly: CYPA binding affinity (Kd1), SPR. Particulars: steady state, (95% CI). Here is the method:
The binding affinity of compounds for CYPA (Kd1) was assessed by SPR on a Biacore 8K instrument as previously described.

Series [5] deals with A375 cells. Put plainly: Cellular ERK phosphorylation (pERK). It counts as cell-based, human. The settings on record: Homo sapiens, A-375; A375 (BRAF^V600E).
Series [6] has as its system Capan-1 cells. Briefly: Cell proliferation (CTG). Particulars: Homo sapiens; Capan-1, CTG; (95% CI). It is filed as cell-based. As to the method:
as §1

The target in series [7] is KRAS^G12V (Homo sapiens, UniProt P01116+P62937, G12V). Briefly: RAS binding affinity of compound-bound CYPA (Kd2), SPR. More on the design: His6-TEV (N); made in house; host or cells: BL21(DE3) Escherichia coli. Particulars: steady state, (95% CI).
Series [8] relates to NCI-H441, HPAC and SW620 CDX models. Put plainly: CDX models, RMC-7977 versus SHP2 and MEK inhibitors. Particulars: three KRAS^G12X models; RMC-7977 10 mg kg^−1 once daily, RMC-4550 20 mg kg^−1 every 2 days, cobimetinib 2.5 mg kg^−1 once daily, alone or in combination.
Method: Data are mean ± s.e.m. of 3–18 mice per group.
Female BALB/c nude mice, NOD SCID and NSG mice 6-8 weeks old from Beijing Vital River/VR Laboratory Animal Co., LTD, Beijing AniKeeper Biotech Co., Ltd., Shanghai Sino-British SIPPR/BK Laboratory Animal Co., LTD and The Jackson Laboratory were used. Animals were housed in polycarbonate cages, in an environmentally monitored, well ventilated room maintained at a constant temperature of 20-26°C and relative humidity of 40-80%. Fluorescent lighting provided illumination approximately 12 hours per day. Each mouse was inoculated at the right flank with tumor cells (2x10^6-1x10^7) in 100-200 µL of media/PBS supplemented with Matrigel (1:1). Treatments were started when the average tumor size reached 100-250 mm^3. […] Mice on studies were weighed and tumor measurements collected twice weekly. Human primary cancer xenograft models were generated using fresh cancer tumor fragments obtained from hospitals with informed consent from the patients in accordance with protocols approved by the Hospital Institutional Ethical Committee (IEC). Tumor fragments were serial-passaged in BABL/c nude mice and then cryopreserved. Cryopreserved tumors were recovered by implantation in BALB/c nude mice and further serial passaged and frozen for study implantation use. Recovered tumor fragments of about 15-30 mm3 in size from each model were implanted into right flanks of Balb/c nude mice. Treatment started when average tumor volume reached 100-250mm^3. For efficacy study, Animals were assigned to study groups using stratified randomization based upon their tumor volumes (n=3-10/group). […] Animals were treated for 28 days (or up to 110 for selected models) or an earlier time if tumor burden reached humane endpoint. Mean ± s.e.m was plotted in the waterfall plots. The dashed line on waterfall plot indicates a 10% reduction in tumor volume from baseline. […] Body weights were collected twice a week during the study. For single-dose pharmacokinetic/pharmacodynamics (PK/PD) study, mice were randomized into treatment groups when mean tumor volume reached 400-600 mm^3.
Series [9] has as its system Pa16C cells expressing MEK1 mutants. Put plainly: Proliferation (Calcein AM) of Pa16C cells expressing MEK1 mutants. It is filed as cell-based, human.
The test system of series [10] is RAS-less MEFs. Briefly: Western blots of isogenic RAS-less MEF cells expressing KRAS variants or BRAF(V600E). The settings on record: 24 h, western blot. It is filed as cell-based, mouse. On the technique in general: In western blotting, separated proteins are transferred to a membrane and probed.
Series [11] has as its system AsPC-1 and NCI-H441 cells. Briefly: pERK (MSD) and proliferation (CTG) in AsPC-1 and NCI-H441 cells, CYPA inhibitor co-treatment or PPIA KO. It counts as cell-based, human. Particulars: for activity at 0.00046 µM: 0.46 nM.

Where “and” joins values, the source holds several entries; their conditions need not be identical. Equal values may be shown once. Read-outs that look alike come from different tables or passages of the source. Bounds are passed on as bounds.

As for `CCn1c(-c2cccnc2[C@H](C)OC)c2c3cc(ccc31)-c1csc(n1)C[C@H](NC(=O)[C@H](C(C)C)N(C)C(C)=O)C(=O)N1CCC[C@H](N1)C(=O)OCC(C)(C)C2` [Compound 2], the EC50 was 31.6 nM in series [1], above 10000 nM in series [3], above 10000 nM in series [5] and 149 nM in series [6]. Moreover, the bioavailability in series [2] worked out at 0.4%. In series [4], the Kd stood at 330 nM.
On to `CCn1c(-c2cccnc2[C@H](C)OC)c2c3cc(ccc31)-c1csc(n1)C[C@H](NC(=O)[C@H]1CCO1)C(=O)N1CCC[C@H](N1)C(=O)OCC(C)(C)C2` [Compound 3], for which the EC50 is 124 nM in series [1], above 10000 nM in [3], above 10000 nM in series [5] and 615 nM in series [6]. Also, the Kd in series [7] was found to be 818 nM; in series [4] it was 6270 nM. The bioavailability in [2] was 44%.
As to `CCn1c(-c2cc(N3CCN(C)CC3)cnc2[C@H](C)OC)c2c3cc(ccc31)-c1csc(n1)C[C@H](NC(=O)[C@H]1CCO1)C(=O)N1CCC[C@H](N1)C(=O)OCC(C)(C)C2` [Compound 4], the EC50 in series [1] was 1.94 nM; in [3] it was 6950 nM; in series [5], above 10000 nM; in [6], 14.2 nM. The Kd in [7] was 292 nM; in series [4], 605 nM.
On to `Cc1nc(N2CCC3(CC2)CO[C@@H](C)[C@H]3N)c(CO)nc1-c1cccc(Cl)c1Cl` [RMC-4550], for which the anti-tumour activity result in series [8] is on record as “only modest tumour growth inhibition”.
Turning to `O=C(Nc1ccc2[nH]nc(-c3ccncc3)c2c1)[C@@H]1CCN(CC(=O)N2CCN(c3ccc(-c4ncccn4)cc3)CC2)C1` [SCH772984], the “Proliferation of Pa16C cells expressing MEK1 mutant constructs” value (“Proliferation” for short) in series [9] (MEK1E102-I103del, inhibitor 0.046 nM) was 102.4 and 93.7 and 111.1 and 109.2; in series [9] (MEK1E102-I103del, inhibitor 0.412 nM), 88.7 and 97.2 and 116.5 and 112.2; in [9] (MEK1E102-I103del, inhibitor 1.235 nM), 62.5 and 77.2 and 97.3 and 86.7; in series [9] (MEK1K57N, inhibitor 0.046 nM), 116 and 117.1 and 131.7 and 130.6; in [9] (MEK1K57N, inhibitor 0.412 nM), 139 and 146.7 and 118.9 and 144.8; in [9] (MEK1K57N, inhibitor 1.235 nM), 153.6 and 157.6 and 123.4 and 129.5. Besides, the “Proliferation” value in [9] (MEK1K57N, inhibitor 3.704 nM) is 116.2 and 140.9 and 100.4 and 107.4; in [9] (MEK1K57N, inhibitor 11.111 nM) it was 83.1 and 119.2 and 75.2 and 67; in series [9] (MEK1Q56P, inhibitor 0.046 nM) it was 136.2 and 107 and 127.7 and 113.2; in series [9] (MEK1Q56P, inhibitor 0.412 nM), 178.1 and 122.6 and 149.9 and 115.3; in [9] (MEK1Q56P, inhibitor 1.235 nM), 166.6 and 134 and 125.8 and 104.6; in [9] (MEK1Q56P, inhibitor 3.704 nM), 131.2 and 128.6 and 108.4 and 83.5. Besides, the “Proliferation” value was 105.3 and 97.5 and 108.4 and 102.6 in series [9] (MEK1S218D/S222D, inhibitor 0.046 nM); 90.3 and 97.7 and 107.5 and 108.3 in [9] (MEK1S218D/S222D, inhibitor 0.412 nM); 59.2 and 93.4 and 100.5 and 90.2 in [9] (MEK1S218D/S222D, inhibitor 1.235 nM); 113.6 and 107.4 and 114.6 and 111.6 in [9] (MEK1WT, inhibitor 0.046 nM); 127.4 and 95.8 and 106.8 and 108.8 in series [9] (MEK1WT, inhibitor 0.412 nM); 95.9 and 89.3 and 90.3 and 82.4 in [9] (MEK1WT, inhibitor 1.235 nM). Besides, the “Proliferation” value in series [9] (MEK1WT, inhibitor 3.704 nM) is 49.4 and 66.6 and 61 and 49.7; in [9] (MEK1WT, inhibitor 11.111 nM), 29.9 and 38 and 33.3 and 24.2.
On to `O=C(c1ccc(F)c(F)c1Nc1ccc(I)cc1F)N1CC(O)([C@@H]2CCCCN2)C1` [cobimetinib], for which the anti-tumour activity result in series [8] is given as “only modest tumour growth inhibition”.
With `CC(=O)Nc1cccc(-n2c(=O)n(C3CC3)c(=O)c3c(Nc4ccc(I)cc4F)n(C)c(=O)c(C)c32)c1` [trametinib, reference compound], the “pERK suppression in RAS-less MEFs” value in [10] was “reduced pERK similarly in all cells”. For the same compound, in series [11] (AsPC-1 and NCI-H441, pERK and proliferation), the “effect of disruption of the PPIA locus on sensitivity” value is listed as “did not affect sensitivity”. In addition, the activity at 16.9 pM in series [11] (Homo sapiens, ASPC1, AsPC-1, […], read-out: pERK inhibition in PPIA KO cells treated with trametinib) turned out to be 106%. Also, the activity at 0.00046 µM is 47% in series [11] (Homo sapiens, ASPC1, AsPC-1 PPIA KO, read-out: pERK inhibition in PPIA KO cells treated with trametinib) and 59% in series [11] (Homo sapiens, NCI-H441, NCI-H441 PPIA KO, read-out: pERK inhibition in PPIA KO cells treated with trametinib). Besides, the activity at 0.00412 µM in series [11] (Homo sapiens, ASPC1, AsPC-1 PPIA KO, 4.12 nM, read-out: Proliferation inhibition in PPIA KO cells treated with trametinib) was 25.5%; in series [11] (Homo sapiens, NCI-H441, NCI-H441, 4.12 nM, read-out: Proliferation inhibition in PPIA KO cells treated with trametinib) it was 49.5%; in series [11] (Homo sapiens, NCI-H441, NCI-H441 PPIA KO, 4.12 nM, read-out: Proliferation inhibition in PPIA KO cells treated with trametinib), 47%. The activity at 0.037 µM came out at 9.16% in series [11] (Homo sapiens, ASPC1, AsPC-1 PPIA KO, 37.00 nM, read-out: Proliferation inhibition in PPIA KO cells treated with trametinib); 44.6% in series [11] (Homo sapiens, NCI-H441, NCI-H441, 37.00 nM, read-out: Proliferation inhibition in PPIA KO cells treated with trametinib); 40.9% in series [11] (Homo sapiens, NCI-H441, NCI-H441 PPIA KO, 37.00 nM, read-out: Proliferation inhibition in PPIA KO cells treated with trametinib). For the same compound, the activity at 0.333 µM in series [11] (Homo sapiens, ASPC1, AsPC-1 PPIA KO, 333.00 nM, read-out: Proliferation inhibition in PPIA KO cells treated with trametinib) was found to be 4.83%; in series [11] (Homo sapiens, NCI-H441, NCI-H441, 333.00 nM, read-out: Proliferation inhibition in PPIA KO cells treated with trametinib), 42.2%; in series [11] (Homo sapiens, NCI-H441, NCI-H441 PPIA KO, 333.00 nM, read-out: Proliferation inhibition in PPIA KO cells treated with trametinib), 37.7%. Moreover, in [11] (Homo sapiens, NCI-H441, NCI-H441, 0.05 nM, read-out: Proliferation inhibition in PPIA KO cells treated with trametinib), the activity at 50 pM was found to be 120%. Besides, the activity at 1 µM stood at 35.6% in series [11] (Homo sapiens, NCI-H441, NCI-H441, 1000.00 nM, read-out: Proliferation inhibition in PPIA KO cells treated with trametinib) and 28.5% in [11] (Homo sapiens, NCI-H441, NCI-H441 PPIA KO, 1000.00 nM, read-out: Proliferation inhibition in PPIA KO cells treated with trametinib).
